Laboratory results as given in patent US4361573A, “α,α-Diaryl-β-(tert-amino)-propanols and diuretic pharmaceutical compositions containing them” (Temmler AG, priority 1974, dated 1982).
Like-named read-outs stand apart in the source and are kept apart here.

Key:
[1] = mice, oral; literature value; cited from earlier work
[2] = comparison of toxicity in mice: oral LD50 by the Lichtfiel & Wilcoxon method; type: in vivo; conditions: observation period 7 days, 95% confidence limit in brackets
Text: In Table 3 the mean lethal doses for mice, administered orally (LD50 determination by the […] & WILCOXON method - J.Pharmacol. Exp. Ther. 96,98 (1949)) are compared.

[3] = saluretic efficiency test in rats: elimination of water, sodium, chloride and potassium in 6 h urine after oral dosing; type: in vivo; conditions: rats, oral; for change in vivo at 40 µmol/kg / change in vivo at 80 µmol/kg: Rattus norvegicus
Procedure: In order to test the saluretic efficiency of the compounds of the invention rats having a weight of 150 to 200 g were used. The animals were kept without food, but not without drinking water, for 15 hours before the beginning of the test. The test substances were administered to groups of four rats, of substantially equal weight, with a rigid stomach probe in a 1% methyl cellulose slime. The dose required per 100 g animal (unit dosage in μmol/kg body weight) was contained in one ml. Following the administration of the substance the rats were given 5 ml 0.9% sodium chloride solution per 100 g body weight p.o. and placed in a diuresis funnel after manually emptying the bladder. Urine was collected for 6 hours in an airconditioned chamber at 24°±1° C. and a relative air humidity of 50±5%. The diuretic effect of a particular dose was tested on at least two, but more frequently however on four to eight groups of rats. Two sodium chloride controls were also used for each test day.
At the end of the collecting periods the volumes of urine discharged per group were noted and the pH value and also the content of sodium, potassium (flame-photometrically) and chloride (measured argentometrically with the determination of the end point potentiometrically) were determined.
From the analysis results the quantities of Na^+, K^+ and Cl^- eliminated were calculated in […] body weight, and the values thus obtained compared with those of the control animals.
Means values and twice the standard deviation were calculated from the data for the sodium chloride controls, in order to determine the normal range. Then, for the values found with the test substances, the percentage variations from the average in respect of these parameters were calculated and tabulated. In this connection, with the results given in Table 1, the upper limit of the normal range, which is defined as the mean value plus twice the standard deviation, was selected as the reference quantity for the variations. In this way relevant hyper-eliminations could clearly be recognised.
In Table 2, the mean percentage variations in potassium elimination after administration of the compounds in accordance with the invention are compared with the mean value of the potassium elimination in the case of the sodium chloride controls. At the same time the […] ratio is given which provides conclusive evidence of the effective saluretic property. The larger this quotient is, then the more sodium than potassium is eliminated in proportion.

[4] = 6 h, 40 μmol/kg body wt., relative to mean K+ elimination of the controls, read-out: Mean percentage variation in the elimination of potassium
[5] = 6 h, 80 μmol/kg body wt., relative to mean K+ elimination of the controls, read-out: Mean percentage variation in the elimination of potassium
[6] = 40 μmol/kg body wt., deviation from control mean plus twice the standard deviation, 6 h urine, read-out: Mean percentage variation in the elimination of Chloride
[7] = 40 μmol/kg body wt., deviation from control mean plus twice the standard deviation, 6 h urine, read-out: Mean percentage variation in the elimination of H2O
[8] = 40 μmol/kg body wt., deviation from control mean plus twice the standard deviation, 6 h urine, read-out: Mean percentage variation in the elimination of Sodium
[9] = 80 μmol/kg body wt., deviation from control mean plus twice the standard deviation, 6 h urine, read-out: Mean percentage variation in the elimination of Chloride
[10] = 80 μmol/kg body wt., deviation from control mean plus twice the standard deviation, 6 h urine, read-out: Mean percentage variation in the elimination of H2O
[11] = 80 μmol/kg body wt., deviation from control mean plus twice the standard deviation, 6 h urine, read-out: Mean percentage variation in the elimination of Sodium
[12] = 40 μmol/kg body wt., deviation from control mean plus twice the standard deviation, 6 h urine
[13] = 80 μmol/kg body wt., deviation from control mean plus twice the standard deviation, 6 h urine

Molecule: N=C(N)NC(=O)c1nc(Cl)c(N)nc1N [N-amidino-3.5-diamino-6-chloropyrazinocarboxamide]
- LD50 [1]: 70 mg/kg

Molecule: COc1ccc(C(C)(C)C)cc1C(O)(c1ccccc1)C(C)N1CCCCC1 (stereo not shown) [T 2259, 1-(2'-methoxy-5'-tertiary-butylphenyl)-1-phenyl-2-piperidino-propan-1-ol]
- LD50 ([2]; mouse, in vivo, read-out: LD50): 560 mg/kg
- change in vivo at 40 µmol/kg [3, 4]: 19.4%
- change in vivo at 80 µmol/kg [3, 5]: 38.8%
- change in vivo at 40 µmol/kg [3, 6]: 94%
- change in vivo at 40 µmol/kg [3, 7]: 46.5%
- change in vivo at 40 µmol/kg [3, 8]: 28.7%
- change in vivo at 80 µmol/kg [3, 9]: 110%
- change in vivo at 80 µmol/kg [3, 10]: 76.6%
- change in vivo at 80 µmol/kg [3, 11]: 59.8%
- Quotient Na/K ([3]; 40 μmol/kg body wt.): 6.40
- Quotient Na/K ([3]; 80 μmol/kg body wt.): 6.84

Molecule: COc1c(C)cc(C(O)(c2cc(C(C)C)c(OC)c(C(C)C)c2)C(C)N2CCCCC2)cc1C (stereo not shown) [T 2266, 1-(4'-methoxy-3',5'-diisopropylphenyl)-1-(4"-methoxy-3",5"-dimethylphenyl)-2-piperidinopropan-1-ol]
- LD50 ([2]; mouse, in vivo, read-out: LD50): > 3200 mg/kg
- change in vivo at 40 µmol/kg [3, 4]: -2%
- change in vivo at 80 µmol/kg [3, 5]: 4%
- change in vivo at 40 µmol/kg [3, 6]: -13.2%
- change in vivo at 40 µmol/kg [3, 7]: -12.9%
- change in vivo at 40 µmol/kg [3, 8]: -7.7%
- change in vivo at 80 µmol/kg [3, 9]: 12.2%
- change in vivo at 80 µmol/kg [3, 10]: 19.7%
- change in vivo at 80 µmol/kg [3, 11]: 19.4%
- Quotient Na/K ([3]; 40 μmol/kg body wt.): 5.59
- Quotient Na/K ([3]; 80 μmol/kg body wt.): 6.81

Molecule: CCOc1c(C(C)C)cc(C(O)(c2ccc(OC)cc2)C(C)N2CCCCC2)cc1C(C)C (stereo not shown) [T 2310]
- LD50 ([2]; mouse, in vivo, read-out: LD50): 520 mg/kg
- change in vivo at 40 µmol/kg [3, 4]: 14.3%
- change in vivo at 80 µmol/kg [3, 5]: -2%
- change in vivo at 40 µmol/kg [3, 6]: 8.9%
- change in vivo at 40 µmol/kg [3, 7]: 41.3%
- change in vivo at 40 µmol/kg [3, 8]: 27.3%
- change in vivo at 80 µmol/kg [3, 9]: 36.3%
- change in vivo at 80 µmol/kg [3, 10]: 67.9%
- change in vivo at 80 µmol/kg [3, 11]: 42.3%
- Quotient Na/K ([3]; 40 μmol/kg body wt.): 6.62
- Quotient Na/K ([3]; 80 μmol/kg body wt.): 8.64

Molecule: 1-(2'-methoxy-3'-methyl-5'-tertiary-butylphenyl)-1-(2"-methoxy-4"-hydroxyphenyl- (or 2"-hydroxy-4"-methoxyphenyl)-2-piperidino-propan-1-ol [T 2458]
- LD50 [2]: 3200 mg/kg
- Quotient Na/K ([3]; 40 μmol/kg body wt.): 5.60
- Mean percentage variation in the elimination of Chloride [3, 12]: 16.9%
- Mean percentage variation in the elimination of H2O [3, 12]: 30.9%
- Mean percentage variation in the elimination of Sodium [3, 12]: 40.4%
- Mean percentage variation in the elimination of potassium ([3]; 40 μmol/kg body wt., relative to mean K+ elimination of the controls): 49.0%
- Quotient Na/K ([3]; 80 μmol/kg body wt.): 8.06
- Mean percentage variation in the elimination of Chloride [3, 13]: 59.0%
- Mean percentage variation in the elimination of H2O [3, 13]: 83.8%
- Mean percentage variation in the elimination of Sodium [3, 13]: 84.2%
- Mean percentage variation in the elimination of potassium ([3]; 80 μmol/kg body wt., relative to mean K+ elimination of the controls): 37.7%

Molecule: COc1cc(C)c(C(O)(c2ccccc2)C(C)N2CCCCC2)cc1C(C)C (stereo not shown) [T 1523, 1-(4'-methoxy-2'-methyl-5'-isopropylphenyl)-1-phenyl-2-piperidino-propan-1-ol]
- LD50 ([2]; mouse, in vivo, read-out: LD50): > 3200 mg/kg
- change in vivo at 40 µmol/kg [3, 4]: 25.5%
- change in vivo at 80 µmol/kg [3, 5]: 13.3%
- change in vivo at 40 µmol/kg [3, 6]: -5.1%
- change in vivo at 40 µmol/kg [3, 7]: 28.9%
- change in vivo at 40 µmol/kg [3, 8]: 13.1%
- change in vivo at 80 µmol/kg [3, 9]: 14.2%
- change in vivo at 80 µmol/kg [3, 10]: 39.6%
- change in vivo at 80 µmol/kg [3, 11]: 28.2%
- Quotient Na/K ([3]; 40 μmol/kg body wt.): 5.35
- Quotient Na/K ([3]; 80 μmol/kg body wt.): 6.72

Molecule: COc1c(C(C)C)cc(Cl)c(C)c1C(O)(c1ccccc1)C(C)N1CCCC1 (stereo not shown) [T 2350, 1-(3'-chloro-6'-methoxy-2'-methyl-5'-isopropylphenyl)-1-phenyl-2-pyrriolidino-propan-1-ol]
- LD50 ([2]; mouse, in vivo, read-out: LD50): > 4500 mg/kg
- change in vivo at 40 µmol/kg [3, 4]: -2%
- change in vivo at 80 µmol/kg [3, 5]: 25.5%
- change in vivo at 40 µmol/kg [3, 6]: 2.6%
- change in vivo at 40 µmol/kg [3, 7]: 24.1%
- change in vivo at 40 µmol/kg [3, 8]: 15.5%
- change in vivo at 80 µmol/kg [3, 9]: 21.2%
- change in vivo at 80 µmol/kg [3, 10]: 49.8%
- change in vivo at 80 µmol/kg [3, 11]: 40.5%
- Quotient Na/K ([3]; 40 μmol/kg body wt.): 7.00
- Quotient Na/K ([3]; 80 μmol/kg body wt.): 6.65

Molecule: COc1ccc(C(O)(c2cc(C(C)C)c(OC)c(C(C)C)c2)C(C)N2CCCCC2)cc1 (stereo not shown) [T 2237, 1-(4'-methoxy-3',5'-diisopropylphenyl)-1-(4"-methoxyphenyl)-2-piperidino-propan-1-ol]
- LD50 ([2]; mouse, in vivo, read-out: LD50): > 6400 mg/kg
- change in vivo at 40 µmol/kg [3, 4]: 13.3%
- change in vivo at 80 µmol/kg [3, 5]: 19.4%
- change in vivo at 40 µmol/kg [3, 6]: 24.3%
- change in vivo at 40 µmol/kg [3, 7]: 40.8%
- change in vivo at 40 µmol/kg [3, 8]: 32.1%
- change in vivo at 80 µmol/kg [3, 9]: 57.1%
- change in vivo at 80 µmol/kg [3, 10]: 67.9%
- change in vivo at 80 µmol/kg [3, 11]: 59.8%
- Quotient Na/K ([3]; 40 μmol/kg body wt.): 6.93
- Quotient Na/K ([3]; 80 μmol/kg body wt.): 7.95

Molecule: COc1ccc(C(O)(c2cc(C(C)C)c(OC)c(C(C)C)c2)C(C)N2CCCCC2)cc1OC (stereo not shown) [T 1882, 1-(4'-methoxy-3',5'-diisopropylphenyl)-1-(3",4"-dimethoxyphenyl)-2-piperidino-propan-1-ol]
- LD50 ([2]; mouse, in vivo, read-out: LD50): 3400 mg/kg
- change in vivo at 40 µmol/kg [3, 4]: 13.3%
- change in vivo at 80 µmol/kg [3, 5]: -12.2%
- change in vivo at 40 µmol/kg [3, 6]: 6.3%
- change in vivo at 40 µmol/kg [3, 7]: 17.7%
- change in vivo at 40 µmol/kg [3, 8]: 24.4%
- change in vivo at 80 µmol/kg [3, 9]: -4.4%
- change in vivo at 80 µmol/kg [3, 10]: 7.5%
- change in vivo at 80 µmol/kg [3, 11]: 9.5%
- Quotient Na/K ([3]; 40 μmol/kg body wt.): 6.52
- Quotient Na/K ([3]; 80 μmol/kg body wt.): 7.41

Molecule: COc1ccc(C(O)(c2cc(C(C)(C)C)cc(C)c2OC)C(C)N2CCCCC2)c(OC)c1 (stereo not shown) [T 2455, 1-(2'-methoxy-3'-methyl-5'-tertiary-butylphenyl)-1-(2",4"-dimethoxyphenyl)-2-piperidino-propan-1-ol]
- LD50 ([2]; mouse, in vivo, read-out: LD50): 4550 mg/kg
- change in vivo at 40 µmol/kg [3, 4]: 13.3%
- change in vivo at 80 µmol/kg [3, 5]: -23.5%
- change in vivo at 40 µmol/kg [3, 6]: 21.4%
- change in vivo at 40 µmol/kg [3, 7]: 39.8%
- change in vivo at 40 µmol/kg [3, 8]: 31.3%
- change in vivo at 80 µmol/kg [3, 9]: 34.8%
- change in vivo at 80 µmol/kg [3, 10]: 62.4%
- change in vivo at 80 µmol/kg [3, 11]: 55.8%
- Quotient Na/K ([3]; 40 μmol/kg body wt.): 6.88
- Quotient Na/K ([3]; 80 μmol/kg body wt.): 12.93
